Laboratory results published in patent publication USRE39682E1, “Farnesyl derivatives and pharmaceutical compositions containing them” (Ramot at Tel Aviv University Ltd., priority 1993, dated 2007).

What was measured:
[1] = biological target: T1, PPMTase (Mus musculus, UniProt Q9EQK7); experiment: PPMTase activity (AFC methylation) in membranes of B16F10 melanoma cells; type: biochemical; details: for PPMTase activity: with inhibitor
T1 construct: PPMTase activity in membranes obtained from four different cell lines as determined by methylation of AFC; endogenous in cells; host or cells: B16F10 melanoma cell membranes
T1 sequence (Q9EQK7 whole entry): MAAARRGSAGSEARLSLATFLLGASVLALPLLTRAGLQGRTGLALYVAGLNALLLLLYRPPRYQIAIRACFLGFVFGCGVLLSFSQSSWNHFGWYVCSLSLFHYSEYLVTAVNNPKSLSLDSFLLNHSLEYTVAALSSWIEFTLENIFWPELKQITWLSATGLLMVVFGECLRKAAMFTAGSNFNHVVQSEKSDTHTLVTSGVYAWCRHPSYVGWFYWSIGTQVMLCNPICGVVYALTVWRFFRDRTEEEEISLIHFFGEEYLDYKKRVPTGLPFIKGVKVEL
Experimental: Charles River adult male rats were used for preparation of cerebellar synaptosomal membranes. Cerebella were removed after decapitation and homogenized in 0.32M sucrose containing 50 mM Tris-HCl pH 7.4, 3 mM EDTA, 1 mM EGTA, 5 unit/ml aprotinin and 5 μg/ml pepstatin (buffer A) to yield 10% (w/v) homogenates. Nuclear fractions were obtained by 10 min. 600×g centrifugation and synaptosomal fractions were obtained by 20 mins. 14,500×g centrifugation. Membranes of the various cell types used were prepared in the above buffer A by a 60 min. spin at 100,000×g.
Pellets were resuspended in the homogenization buffer and stored at −70° C. Methylation assays were performed at 37° C. in 50 mM Tris-HCl buffer pH 7.4, using 75-125 μg protein, 25 μM [methyl-^3H]AdoMet ([…]) as a methyl donor and 150 μM AFC as a methylation substrate (prepared as a stock solution in DMSO) in a total volume of 50 μl. DMSO concentration in all assays was 4%.
(§1) Reactions were terminated after 10 min. by adding 500 μl chloroform methanol (1:1) and a subsequent addition of 250 μl H2O, mixing them and subsequently by phase separation. A portion of 125 μl of the chloroform phase was dried down at 40° C. and 200 μl of 1M NaOH/1% SDS solution were added thereto. The [^3H]methanol thus formed was counted by the vapor phase equilibrium method as described previously (Hakiai et al., Cell Mol. Neurobiol., 11, 415-431, (1991); Lenner et al., Cell Mol. Neurbiol., 12, 333 and 3351, (1992); Ben-Baruch et al., Biochem. Biophy. Res. Commun., 195, 282-288, (1993)). Typical background counts (i.e. counts of methylation with no AFC added) were 50-100 cpm while typical methylation counts with AFC as a substrate yielded 500 to 6000 cpm. Assays were performed in triplicate and background counts subtracted. Methylation of endogenous substrates, in intact cells, and [α-^32P] GTP-blot overlay assays and gel electrophoreses were performed as detailed previously (Hakiai et al., supra (1991); Lenner et al., supra (1993)).
The B16F10 melanoma cells were grown in RPMI 1640/10% fetal calf serum, 2 mM glutamine and antibiotics as for the HEC1A cells, at the density of 1×10^4 cells/well. All four types of cells were used for determining the PPMTase activity using AFC as the substrate as described above for synaptosomal membrane preparation. Usually 150 μg membranal proteins were used in the assay for a 10 min. incubation time.

[2] = system: PPMTase activity in intact HEC1A, ras-transformed rat1 and melanoma cells; experiment: Methylation of endogenous 21-24 KDa GTP-binding proteins in intact cells ([methyl-3H]methionine labelling); type: cell-based; details: 100 μM, FIG. 3
Experimental: as §1
HEC1A, rail, ras-transformed rail and B16F10 melanoma cells were also used for metabolic labelling of endogenous proteins with 100-300 μCi/ml [methyl-^3H]methionine which was also indicative of PPMTase activity. […]

[3] = system: untransformed rat1 cells; experiment: Growth of untransformed rat1 cells (cell counting); type: cell-based, rat; details: for effect on the growth of normal rat1 cells: 0.1-50 μM, 3, 7 or 10 days, FIG. 7
Experimental: HEC1A, V-raf-3T3 and SV40-CHE cells were grown in Dulbecco's modified Eagle medium (DMEM) containing 10% fetal calf serum (FCS), 4 mM L-glutamine, 10 μg/ml streptomycin and 10 U/ml penicillin. Rat1 and -EJ cells were grown in the same medium except that it was supplemented with 12.5 U/ml nyostatin. RB-22 cells were grown in modified DMEM (1 mM sodium pyruvate, 20 mM sodium bicarbonate)/10% FCS containing 4 mM L-glutamine, […] streptomycin, 10 U/ml penicillin. PC-12 cells were grown in DMEM 15% FCS/5% horse serum and the above noted antibiotics.
HEC1A cells were plated in 24 well plates at a density of 5×10^3 cells per well and fed with 1 ml of medium. The cells were grown at 37° C. in a humidified atmosphere of 95%/5% air/CO2. All other cell types employed were plated in 24 well plates at a density of 2×10^3 cells per well and fed with the appropriate medium.
Cultures were treated with farnesyl derivatives or with solvent either 3 hrs following plating or one day after plating as indicated. The drugs were prepared in DMSO to yield the final desired drug (0.1-50 μM) concentration and 0.1% DMSO. Control cultures received 0.1% DMSO only. Cultures were fed on days 6, 7 and 9 of the experiment with the drugs or with solvent-containing media.
[…] For counting, cells were detached from plates with trypsin/EDTA, and collected by a low speed spin in the presence of DMEM/10% FCS. The pelleted cells were resuspended in a small volume of DMEM/10% FCS and counted under the microscope. Viability of cells was estimated by staining with (3-(4,5-dimethylthiosol-2-yl)-2,5-diphenyltetrazolium bromide (MTT) and microscopic examination of the stained and unstained cells, or spectrophotometric estimation (OD490, 590) of the total stain in each well. Non viable cells were estimated by the trypan blue exclusion method.
Cells were plated at a density 2×10^3/well and received either solvent or drugs one day later. Following 3, 7, or 10 days of the drugs-treatment as described above, cells were collected and the number of cells in each well was estimated by direct counting. […]

SMILES	% Inhibition [1] [%]	PPMTase activity [1] [pmol/min/mg protein]	inhibition of methylation of endogenous 21-24 KDa proteins [2]	effect on the growth of normal rat1 cells [3]	Number of cells (% of control) ([3]; Ras1, 25 μM, day 5)
CC(C)=CCC/C(C)=C/CC/C(C)=C/CSCC(=O)O [FTA, S-trans, trans-farnesylthioacetic acid, reference compound]	38	1.3	able to inhibit	neither FTA nor FTS has any significant effect	–
CC(C)=CCC/C(C)=C/CC/C(C)=C/CSc1ccccc1C(=O)O [FTS, (3,7,11-trimethyl-dodeca-2,6,10-trienyl)-2-thiobenzoic acid]	50	1.7	able to inhibit	neither FTA nor FTS has any significant effect	97 ± 10 % of control
